Test systems include RXF 393 renal; A549 NSCLC; 786-0 renal; LOX IMVI melanoma; HOP-92 NSCLC; BT-549 breast; HCC-2998 colon; EKVX NSCLC; OVCAR-5 ovarian; SF-295 CNS.
Test in all cases: growth of human tumour cells (NCI), 48 h

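Each compound was tested at five concentrations against cells in 96-well plates for 48 hours. The concentration for 50% growth inhibition is given as GI50. TGI: total growth inhibition.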 Where only a bound is given, the exact number is not on record here.

As to `O=Cc1c(-c2cc(O)ccc2O)nc2sccn12`, the GI50 in the experiment on RXF 393 renal is 7.83 µM; in the experiment with A549 NSCLC, 25.7 µM; in the experiment on 786-0 renal, 3.83 µM; in the experiment on LOX IMVI melanoma, 8.94 µM; in the experiment with HOP-92 NSCLC, 10.7 µM; in the experiment on BT-549 breast, 18 µM. For the same compound, the GI50 was 17.3 µM in the experiment on HCC-2998 colon, 28.4 µM in the experiment on EKVX NSCLC, 23.1 µM with OVCAR-5 ovarian and 25 µM with SF-295 CNS. The TGI in the experiment with RXF 393 renal was 26.6 µM; with A549 NSCLC it was greater than 100 µM; in the experiment on 786-0 renal, 15.9 µM; with LOX IMVI melanoma, 33.5 µM; with HOP-92 NSCLC, 27.3 µM; in the experiment with BT-549 breast, 48.8 µM. The TGI with HCC-2998 colon was 33.6 µM; with EKVX NSCLC it was 93.1 µM; with OVCAR-5 ovarian, 74.4 µM; with SF-295 CNS it was 74.6 µM.

As for `O=c1c2ccccc2c2ccccc2c(=O)n1-c1cc2c3ccccc3ccc2c2ccccc12`, the TGI with RXF 393 renal, in the experiment on A549 NSCLC, in the experiment with 786-0 renal, with LOX IMVI melanoma, in the experiment with HOP-92 NSCLC and in the experiment on BT-549 breast was greater than 100 µM each time. Moreover, the TGI in the experiment on HCC-2998 colon was 89.1 µM; in the experiment on EKVX NSCLC it was greater than 100 µM; with OVCAR-5 ovarian, greater than 100 µM; with SF-295 CNS, greater than 100 µM.

As for `COCCn1cc(-c2csc(-c3c[nH]c4ccccc34)n2)c2cccnc21`, the GI50 in the experiment with RXF 393 renal was 5.76 µM; in the experiment with A549 NSCLC, 7.1 µM; with 786-0 renal it was 6.25 µM; in the experiment with LOX IMVI melanoma it was 3.96 µM; with HOP-92 NSCLC, 14.9 µM; in the experiment on BT-549 breast it was 4.45 µM. The GI50 is 4.08 µM in the experiment on HCC-2998 colon, 2 µM in the experiment on EKVX NSCLC, 28.2 µM in the experiment on OVCAR-5 ovarian and 3.35 µM in the experiment with SF-295 CNS. The TGI in the experiment with RXF 393 renal was 64.3 µM; in the experiment on A549 NSCLC, greater than 100 µM; in the experiment on 786-0 renal it was greater than 100 µM; in the experiment with LOX IMVI melanoma it was greater than 100 µM; in the experiment with HOP-92 NSCLC it was greater than 100 µM; in the experiment with BT-549 breast, greater than 100 µM. Besides, the TGI with HCC-2998 colon, with EKVX NSCLC, in the experiment on OVCAR-5 ovarian and in the experiment on SF-295 CNS was greater than 100 µM each time.

In the case of `C=C1[C@@H](C)[C@H]2[C@H](Cc3ccccc3)NC(=O)[C@]23OC(=O)/C=C/[C@H](O)CCC[C@@H](C)C/C=C/[C@H]3[C@@H]1O`, the TGI with RXF 393 renal was 27.9 µM; in the experiment with A549 NSCLC, greater than 97 µM; in the experiment with 786-0 renal, greater than 100 µM; in the experiment with LOX IMVI melanoma, 39.6 µM; in the experiment with HOP-92 NSCLC, 4.23 µM; in the experiment with BT-549 breast it was greater than 64.3 µM. For the same compound, the TGI in the experiment with HCC-2998 colon is greater than 100 µM; with EKVX NSCLC, greater than 100 µM; with OVCAR-5 ovarian, greater than 100 µM; with SF-295 CNS, 53.5 µM.

Consider `CN(C)CCCn1c2c(c3cnccc3c1=O)C(=O)c1ccccc1-2`, for which the GI50 is 0.396 µM with RXF 393 renal; 0.676 µM in the experiment on A549 NSCLC; 0.361 µM in the experiment on 786-0 renal; 0.303 µM in the experiment with LOX IMVI melanoma; 0.203 µM with HOP-92 NSCLC; 1.2 µM in the experiment with BT-549 breast. Besides, the GI50 is 0.777 µM with HCC-2998 colon, 2.33 µM with EKVX NSCLC, 0.558 µM in the experiment with OVCAR-5 ovarian and 0.737 µM in the experiment on SF-295 CNS. The TGI was 2.05 µM in the experiment on RXF 393 renal; 3.86 µM in the experiment on A549 NSCLC; 13.6 µM in the experiment with 786-0 renal; 4.18 µM with LOX IMVI melanoma; 2.68 µM in the experiment with HOP-92 NSCLC; 8.43 µM in the experiment with BT-549 breast. The TGI worked out at 2.6 µM with HCC-2998 colon, 16 µM in the experiment on EKVX NSCLC, 9.04 µM in the experiment on OVCAR-5 ovarian and 5.59 µM in the experiment with SF-295 CNS.

With `CCN(Cc1cccc(OC)c1)c1ccc(CO)c(Cl)c1`, the GI50 was 11.9 µM in the experiment on RXF 393 renal; 2.06 µM with A549 NSCLC; 12.4 µM in the experiment with 786-0 renal; 14.5 µM in the experiment on LOX IMVI melanoma; 2.11 µM in the experiment on HOP-92 NSCLC; 13.9 µM in the experiment with BT-549 breast. The GI50 with HCC-2998 colon is 12.5 µM; with EKVX NSCLC, 19.9 µM; in the experiment on OVCAR-5 ovarian, 0.157 µM; in the experiment on SF-295 CNS, 0.889 µM. The TGI is 28.8 µM with RXF 393 renal; 27.7 µM with A549 NSCLC; 38.5 µM in the experiment on 786-0 renal; 27.9 µM in the experiment with LOX IMVI melanoma; 20.5 µM with HOP-92 NSCLC; 28.9 µM in the experiment on BT-549 breast. Also, the TGI in the experiment on HCC-2998 colon came to 33.8 µM; with EKVX NSCLC, 71.3 µM; with OVCAR-5 ovarian, 0.606 µM; with SF-295 CNS it was 22 µM.

`CC(=O)OC[C@H]1O[C@@H](n2ccc(=O)[nH]c2=O)[C@H](OC(C)=O)[C@@H]1OC(C)=O`: the GI50 in the experiment on RXF 393 renal, in the experiment with A549 NSCLC, in the experiment with 786-0 renal, in the experiment with LOX IMVI melanoma, in the experiment with HOP-92 NSCLC and in the experiment on BT-549 breast was greater than 100 µM throughout. For the same compound, the GI50 in the experiment on HCC-2998 colon, in the experiment on EKVX NSCLC, in the experiment on OVCAR-5 ovarian and with SF-295 CNS was greater than 100 µM each time. Also, the TGI in the experiment with RXF 393 renal, in the experiment on A549 NSCLC, with 786-0 renal, with LOX IMVI melanoma, in the experiment with HOP-92 NSCLC and in the experiment on BT-549 breast was greater than 100 µM each time. For the same compound, the TGI with HCC-2998 colon, in the experiment with EKVX NSCLC, in the experiment on OVCAR-5 ovarian and in the experiment on SF-295 CNS was greater than 100 µM throughout.

`CC12CCC3C(CC=C4CC(O)CCC43C)C1C/C(=C\N1CCCC1)C2=O` (stereo not given): the GI50 with RXF 393 renal was 41.8 µM; in the experiment on A549 NSCLC, greater than 100 µM; with 786-0 renal, greater than 100 µM; in the experiment with LOX IMVI melanoma, greater than 100 µM; in the experiment with HOP-92 NSCLC, 4.52 µM; in the experiment with BT-549 breast, 41 µM. For the same compound, the GI50 with HCC-2998 colon is greater than 100 µM; in the experiment on EKVX NSCLC, 46.6 µM; with OVCAR-5 ovarian it was greater than 100 µM; with SF-295 CNS, 57.2 µM. For the same compound, the TGI was greater than 100 µM in the experiment with RXF 393 renal; greater than 100 µM with A549 NSCLC; greater than 100 µM in the experiment with 786-0 renal; greater than 100 µM in the experiment on LOX IMVI melanoma; 83.7 µM with HOP-92 NSCLC; greater than 100 µM with BT-549 breast. Moreover, the TGI in the experiment with HCC-2998 colon, with EKVX NSCLC, in the experiment on OVCAR-5 ovarian and in the experiment with SF-295 CNS was greater than 100 µM throughout.

Turning to `O=C(O)c1cc2ccccc2c(O)c1O`, the TGI in the experiment on RXF 393 renal was 31.7 µM; in the experiment on A549 NSCLC, 38.5 µM; with 786-0 renal, 27.6 µM; with LOX IMVI melanoma it was 14.9 µM; in the experiment with HOP-92 NSCLC, greater than 54.9 µM; in the experiment on BT-549 breast, 30 µM. Moreover, the TGI is 35.8 µM with HCC-2998 colon, 51.1 µM with EKVX NSCLC, 32.1 µM in the experiment with OVCAR-5 ovarian and 29.4 µM in the experiment on SF-295 CNS.

For the origin of these results see PubChem BioAssay (NCI).
